Patent US10758614B2, “Combination therapies targeting tumor-associated stroma or tumor cells and topoisomerase” (BIOMED VALLEY DISCOVERIES, INC., priority 2014, dated 2020)

Assays:
[1] = system: MDA-MB231 tumors; settings: 79-day study, endpoint 1500 mm^3; logrank
Experimental: Unless otherwise noted, female immunodeficient athymic nude mice (Crl:NU(Ncr)-Foxn/nu, Charles River) were used at nine weeks old with a body weight (BW) range of about 15 to about 30 grams on Day 1 of the study.
On the day of tumor implant, each test mouse was injected with cultured tumor cells, and tumor growth was monitored as the average size approached the target range. Tumors were measured in two dimensions using calipers, and volume was calculated using the formula: Tumor Volume (mm^3)=(w^2×l)/2 where w=width and l=length, in mm, of the tumor. Tumor weight was estimated with the assumption that 1 mg is equivalent to 1 mm^3 of tumor volume. For all therapeutic studies, mice were sorted into groups containing the same average size tumors prior to initiation of therapy. Controls
One group in each cohort received 1% vehicle IP three times per week to end, and served as the control group for calculation of % tumor growth delay (TGD).
Tumors were measured using calipers twice per week, and each animal was euthanized when its tumor reached the pre-determined tumor volume endpoint described for each experiment (usually 2000 mm^3) or on the final day, whichever came first. […] The time to endpoint (TTE) for analysis was calculated for each mouse by the following equation: TTE=[ log10(endpoint volume)−b]/m where TTE is expressed in days, endpoint volume is expressed in mm^3, b is the intercept, and m is the slope of the line obtained by linear regression of a log-transformed tumor growth data set. […] The calculated TTE was usually less than the TP date, the day on which the animal was euthanized for determination of tumor size. […]
Treatment outcome was evaluated from TGD, defined as the increase in the median TTE in a treatment group compared to the control group: TGD=T−C, expressed in days, or as a percentage of the median TTE of the control group: % TGD=[(T−C)/C]×100 where: […]
Animals were weighed daily on Days 1-5, then twice per week until completion of the study. […] Group mean BW loss also was monitored as per protocol. […]

[2] = system: H460 cells; experiment: M830 in the H460 non-small cell lung carcinoma xenograft model; format: in vivo, athymic nude mice; settings: M830 with combination partner Paclitaxel
Experimental: Animals were monitored for regression responses.
Cultured H460 cells were harvested during exponential growth and resuspended in phosphate buffered saline at a concentration of 1×10^8 cells/mL. 1.0×10^7 tumor cells were injected subcutaneously into the flank of athymic nude mice.

Row | Molecule | survival compared to controls [1] | regression (at Day 21) [2]
1 | COc1cccc2c1C(=O)c1c(O)c3c(c(O)c1C2=O)C[C@@](O)(C(=O)CO)C[C@@H]3O[C@H]1C[C@H](N)[C@H](O)[C@H](C)O1 [Doxorubicin, doxorubicin] | statistically significant survival extensions | –
2 | CC(=O)O[C@H]1C(=O)[C@@]2(C)[C@H]([C@H](OC(=O)c3ccccc3)[C@]3(O)C[C@H](OC(=O)[C@H](O)[C@@H](NC(=O)c4ccccc4)c4ccccc4)C(C)=C1C3(C)C)[C@]1(OC(C)=O)CO[C@@H]1C[C@@H]2O [paclitaxel] | statistically significant survival extensions | –
3 | M830: TEM8 monoclonal antibody (hIgG1), VH SEQ ID NO:5, VL SEQ ID NO:6 (antibody, V domains shown, TEM830 mAb VH; TEM830 mAb VL) VH: EVQLVESGGGVVQPGRSVRLSCAASGFTFSTYTMHWVRQAPGKGLEWVAIISNDGSNKYYADPVRGRFTISRDNSKNTLYLQMNSLRAEDTAVYYCVRGSSWYRGNWFDPWGQGTLVTVSS VL: DIQMTQSPSSLSASVGDRVTIACRASQTISRYLNWYQQKPGKAPKLLIYAASSLQSGVSSRFSGSGSGTEFTLTISSLQPEDFATYFCQQTYSPPITFGQGTRLEIKR | did not produce statistically significant survival benefit | (−61% regression)
